Test results: PubChem BioAssay (NCI)
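At the GI50, growth is halved. The concentration for full growth arrest is given as TGI.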

Key:
Assay in all cases: DTP human tumour cell line panel, 384-well format
ACHN renal = tested on: ACHN renal
BT-549 breast = tested on: BT-549 breast
CCRF-CEM leukemia = tested on: CCRF-CEM leukemia
EKVX NSCLC = tested on: EKVX NSCLC
HCC-2998 colon = tested on: HCC-2998 colon
HOP-62 NSCLC = tested on: HOP-62 NSCLC
MDA-MB-435 melanoma = tested on: MDA-MB-435 melanoma
NCI-H460 NSCLC = tested on: NCI-H460 NSCLC
NCI-H522 lung = tested on: NCI-H522 lung
OVCAR-8 ovarian = tested on: OVCAR-8 ovarian
PC-3 prostate = tested on: PC-3 prostate
SF-539 CNS = tested on: SF-539 CNS
U251 glioblastoma = tested on: U251 glioblastoma

CS(=O)(=O)CCNCc1ccc(-c2ccc3ncnc(Nc4ccc(OCc5cccc(F)c5)c(Cl)c4)c3c2)o1
GI50 (ACHN renal): 398 nM
TGI (ACHN renal): 8090 nM
GI50 (BT-549 breast): 1650 nM
TGI (BT-549 breast): 3010 nM
GI50 (CCRF-CEM leukemia): 1680 nM
TGI (CCRF-CEM leukemia): 3050 nM
GI50 (EKVX NSCLC): 777 nM
TGI (EKVX NSCLC): 3130 nM
GI50 (HCC-2998 colon): 1810 nM
TGI (HCC-2998 colon): 3220 nM
GI50 (HOP-62 NSCLC): 2300 nM
TGI (HOP-62 NSCLC): 4950 nM
GI50 (MDA-MB-435 melanoma): 4970 nM
TGI (MDA-MB-435 melanoma): 9250 nM
GI50 (NCI-H460 NSCLC): 1860 nM
TGI (NCI-H460 NSCLC): 3290 nM
GI50 (NCI-H522 lung): 102 nM
TGI (NCI-H522 lung): 1480 nM
GI50 (OVCAR-8 ovarian): 1720 nM
TGI (OVCAR-8 ovarian): 3730 nM
GI50 (PC-3 prostate): 1750 nM
TGI (PC-3 prostate): 3280 nM
GI50 (SF-539 CNS): 1820 nM
TGI (SF-539 CNS): 3220 nM
GI50 (U251 glioblastoma): 1840 nM
TGI (U251 glioblastoma): 3350 nM
